Legend:
Experiment in all cases: Greenhouse herbicidal activity, visual weed control
Format in all cases: in vivo
Settings in all cases: 20-22 d
[1] = tested on: kochia (Kochia scoparia; KCHSC)
Description: (§1) Seeds of the desired test plant species were planted in Sun Gro MetroMix® 306 planting mixture, which typically has a pH of 6.0 to 6.8 and an organic matter content of about 30 percent, in plastic pots with a surface area of 103.2 square centimeters (cm^2). When required to ensure good germination and healthy plants, a fungicide treatment and/or other chemical or physical treatment was applied. The plants were grown for 7-36 days (d) in a greenhouse with an approximate 14 hour (h) photoperiod which was maintained at about 18° C. during the day and 17° C. during the night. Nutrients and water were added on a regular basis and supplemental lighting was provided with overhead metal halide 1000-Watt lamps as necessary. The plants were employed for testing when they reached the second or third true leaf stage.
(§2) An aliquot of formulated Compound 1 (100 grams acid equivalent per liter (g ae/L); emusifiable concentrate (EC)) was placed in a 25 mL glass vial and diluted in a volume of 1.25% (volume per volume (v/v)) aqueous methylated soybean seed oil to obtain a stock solution. The concentrated stock solutions were diluted with an aqueous mixture of 1.25% v/v of aqueous methylated soybean seed oil to provide the appropriate application rates. Compound requirements are based upon a 12 mL application volume at a rate of 187 liters per hectare (L/ha). Compositions of Compound 1 and the photosystem II inhibitor herbicides (propanil, amicarbazone, pyridafol, desmedipham, terbacil, or bromacil) were prepared by adding aliquot or weighted amount of the photosystem II inhibitor into the diluted solutions of Compound 1. The compositions of Compound 1 and the photosystem II inhibitor herbicides were applied to the plant material with an overhead Mandel track sprayer equipped with 8002E nozzles calibrated to deliver 187 L/ha over an application area of 0.503 square meters (m^2) at a spray height of 18 inches (43 centimeters (cm)) above average plant canopy. Control plants were sprayed in the same manner with the solvent blank.
(§3) The efficacy of each of these herbicidal compositions was then evaluated against rapeseed (Brassica napus; BRSNN), shepherd's purse (Capsella bursa-pastoris; CAPBP), common chickweed (Stellaria media; STEME), scentless mayweed (Matricaria inodora; MATIN), corn chamomile (Anthemis arvensis; ANTAR), wild chamomile (Matricaria chamomilla; MATCH), Persian speedwell (Veronica persica; VERPE), ivyleaf speedwell (Veronica hederifolia; VERHE), corn poppy (Papaver rhoeas; PAPRH), kochia (Kochia scoparia; KCHSC), and Canada thistle (Cirsium arvense; CIRAR). The treated plants and control plants were placed in a greenhouse as described above and watered by subirrigation to prevent washoff of the test compounds. After 20-22 d, the condition of the test plants as compared with that of the control plants was determined visually and scored on a scale of 0 to 100 percent where 0 corresponds to no injury and 100 corresponds to complete kill. […]
(§4) The values reported are means.

[2] = tested on: shepherd's purse (Capsella bursa-pastoris; CAPBP)
Description: as §1, §2, §3, §4

[3] = tested on: common chickweed (Stellaria media; STEME)
Description: as §1, §2, §3, §4

[4] = tested on: wild chamomile (Matricaria chamomilla; MATCH)
Description: as §1, §2, §3, §4

[5] = tested on: Persian speedwell (Veronica persica; VERPE)
Description: as §1, §2, §3, §4

[6] = tested on: Canada thistle (Cirsium arvense; CIRAR)
Description: as §1, §2, §3, §4

[7] = tested on: rapeseed (Brassica napus; BRSNN)
Description: as §1, §2, §3, §4

[8] = tested on: ivyleaf speedwell (Veronica hederifolia; VERHE)
Description: as §1, §2, §3, §4

[9] = tested on: corn chamomile (Anthemis arvensis; ANTAR)
Description: as §1, §2, §3, §4

[10] = tested on: corn poppy (Papaver rhoeas; PAPRH)
Description: as §1, §2, §3, §4

[11] = tested on: scentless mayweed (Matricaria inodora; MATIN)
Description: as §1, §2, §3, §4

In the case of O=c1cc(Cl)[nH]nc1-c1ccccc1 [Pyridafol, pyridafol], the “Obs (% visual control)” value ([1]; Pyridafol 195 g/ha alone) is reported as 0%, the “Obs (% visual control)” value ([2]; Pyridafol 195 g/ha alone) is reported as 0% and the “Obs (% visual control)” value ([3]; Pyridafol 195 g/ha alone) is reported as 0%. For the same compound, the “Obs (% visual control)” value ([4]; Pyridafol 195 g/ha alone) was 0%, the “Obs (% visual control)” value ([5]; Pyridafol 195 g/ha alone) was 0% and the “Obs (% visual control)” value ([6]; Pyridafol 195 g/ha alone) was 0%. The “Obs (% visual control)” value ([7]; Pyridafol 195 g/ha alone) was 5%, the “Obs (% visual control)” value ([8]; Pyridafol 195 g/ha alone) was 0% and the “Obs (% visual control)” value ([9]; Pyridafol 195 g/ha alone) was 0%. The “Obs (% visual control)” value ([10]; PAPRH, Pyridafol 195 g/ha alone) was 0% and the “Obs (% visual control)” value ([11]; Pyridafol 195 g/ha alone) was 10%.
For CCC(C)n1c(=O)[nH]c(C)c(Br)c1=O (stereo not shown) [Bromacil, bromacil], the “Obs (% visual control)” value ([1]; Bromacil 900 g/ha alone) was 97%, the “Obs (% visual control)” value ([2]; Bromacil 900 g/ha alone) was 65% and the “Obs (% visual control)” value ([3]; Bromacil 900 g/ha alone) was 100%. For the same compound, the “Obs (% visual control)” value ([4]; Bromacil 900 g/ha alone) was 100%, the “Obs (% visual control)” value ([5]; Bromacil 900 g/ha alone) was 10% and the “Obs (% visual control)” value ([6]; Bromacil 900 g/ha alone) was 10%. The “Obs (% visual control)” value ([7]; Bromacil 900 g/ha alone) was 65%, the “Obs (% visual control)” value ([8]; Bromacil 900 g/ha alone) was 30% and the “Obs (% visual control)” value ([9]; Bromacil 900 g/ha alone) was 30%. For the same compound, the “Obs (% visual control)” value ([10]; R-PAPRH, Bromacil 900 g/ha alone) was 100% and the “Obs (% visual control)” value ([11]; Bromacil 900 g/ha alone) was 100%.
CC(C)c1nn(C(=O)NC(C)(C)C)c(=O)n1N [Amicarbazone, amicarbazone] was tested, and the “Obs (% visual control)” value ([1]; Amicarbazone 300 g/ha alone) was 50%, the “Obs (% visual control)” value ([2]; Amicarbazone 300 g/ha alone) was 50% and the “Obs (% visual control)” value ([3]; Amicarbazone 300 g/ha alone) was 20%. For the same compound, the “Obs (% visual control)” value ([4]; Amicarbazone 300 g/ha alone) was 95%, the “Obs (% visual control)” value ([5]; Amicarbazone 300 g/ha alone) was 20% and the “Obs (% visual control)” value ([6]; Amicarbazone 300 g/ha alone) was 50%. For the same compound, the “Obs (% visual control)” value ([7]; Amicarbazone 300 g/ha alone) was 60%, the “Obs (% visual control)” value ([8]; Amicarbazone 300 g/ha alone) was 50% and the “Obs (% visual control)” value ([9]; Amicarbazone 300 g/ha alone) was 30%. For the same compound, the “Obs (% visual control)” value ([10]; PAPRH, Amicarbazone 300 g/ha alone) was 30% and the “Obs (% visual control)” value ([11]; Amicarbazone 300 g/ha alone) was 30%.
For CCOC(=O)Nc1cccc(OC(=O)Nc2ccccc2)c1 [Desmedipham, desmedipham], the “Obs (% visual control)” value ([1]; Desmedipham 163 g/ha alone) was 0%, the “Obs (% visual control)” value ([2]; Desmedipham 163 g/ha alone) was 0% and the “Obs (% visual control)” value ([3]; Desmedipham 163 g/ha alone) was 0%. The “Obs (% visual control)” value ([4]; Desmedipham 163 g/ha alone) was 10%, the “Obs (% visual control)” value ([5]; Desmedipham 163 g/ha alone) was 10% and the “Obs (% visual control)” value ([6]; Desmedipham 163 g/ha alone) was 0%. The “Obs (% visual control)” value ([7]; Desmedipham 163 g/ha alone) was 15%, the “Obs (% visual control)” value ([8]; Desmedipham 163 g/ha alone) was 10% and the “Obs (% visual control)” value ([9]; Desmedipham 163 g/ha alone) was 10%. For the same compound, the “Obs (% visual control)” value ([10]; PAPRH, Desmedipham 163 g/ha alone) was 0% and the “Obs (% visual control)” value ([11]; Desmedipham 163 g/ha alone) was 10%.
With Nc1c(F)c(-c2ccc3cc[nH]c3c2F)nc(C(=O)O)c1Cl [Compound 1] the “Obs (% visual control)” value ([1]; Compound 1 5 g/ha alone) was 50%, the “Obs (% visual control)” value ([1]; Compound 1 10 g/ha alone) was 55% and the “Obs (% visual control)” value ([2]; Compound 1 5 g/ha alone) was 65%. The “Obs (% visual control)” value ([2]; Compound 1 10 g/ha alone) was 70%, the “Obs (% visual control)” value ([3]; Compound 1 5 g/ha alone) was 65% and the “Obs (% visual control)” value ([3]; Compound 1 10 g/ha alone) was 70%. For the same compound, the “Obs (% visual control)” value ([4]; Compound 1 5 g/ha alone) was 10%, the “Obs (% visual control)” value ([4]; Compound 1 10 g/ha alone) was 10% and the “Obs (% visual control)” value ([5]; Compound 1 5 g/ha alone) was 70%. For the same compound, the “Obs (% visual control)” value ([5]; Compound 1 10 g/ha alone) was 85%, the “Obs (% visual control)” value ([6]; Compound 1 5 g/ha alone) was 10% and the “Obs (% visual control)” value ([6]; Compound 1 10 g/ha alone) was 30%. For the same compound, the “Obs (% visual control)” value ([7]; Compound 1 5 g/ha alone) was 40%, the “Obs (% visual control)” value ([7]; Compound 1 10 g/ha alone) was 50% and the “Obs (% visual control)” value ([8]; Compound 1 5 g/ha alone) was 75%. For the same compound, the “Obs (% visual control)” value ([8]; Compound 1 10 g/ha alone) was 75%, the “Obs (% visual control)” value ([9]; Compound 1 5 g/ha alone) was 10% and the “Obs (% visual control)” value ([9]; Compound 1 10 g/ha alone) was 40%. The “Obs (% visual control)” value ([10]; PAPRH (R-PAPRH in Tables 1 and 6), Compound 1 5 g/ha alone) was 75%, the “Obs (% visual control)” value ([10]; PAPRH (R-PAPRH in Tables 1 and 6), Compound 1 10 g/ha alone) was 80% and the “Obs (% visual control)” value ([11]; Compound 1 5 g/ha alone) was 10%. For the same compound, the “Obs (% visual control)” value ([11]; Compound 1 10 g/ha alone) was 60%.
In the case of Cc1[nH]c(=O)n(C(C)(C)C)c(=O)c1Cl [Terbacil, terbacil], the “Obs (% visual control)” value ([1]; Terbacil 113 g/ha alone) is reported as 0%, the “Obs (% visual control)” value ([2]; Terbacil 113 g/ha alone) is reported as 30% and the “Obs (% visual control)” value ([3]; Terbacil 113 g/ha alone) is reported as 10%. The “Obs (% visual control)” value ([4]; Terbacil 113 g/ha alone) was 60%, the “Obs (% visual control)” value ([5]; Terbacil 113 g/ha alone) was 30% and the “Obs (% visual control)” value ([6]; Terbacil 113 g/ha alone) was 30%. The “Obs (% visual control)” value ([7]; Terbacil 113 g/ha alone) was 10%, the “Obs (% visual control)” value ([8]; Terbacil 113 g/ha alone) was 60% and the “Obs (% visual control)” value ([9]; Terbacil 113 g/ha alone) was 0%. For the same compound, the “Obs (% visual control)” value ([10]; PAPRH, Terbacil 113 g/ha alone) was 10% and the “Obs (% visual control)” value ([11]; Terbacil 113 g/ha alone) was 10%.
With CCC(=O)Nc1ccc(Cl)c(Cl)c1 [Propanil, propanil] the “Obs (% visual control)” value ([1]; Propanil 840 g/ha alone) was 10%, the “Obs (% visual control)” value ([2]; Propanil 840 g/ha alone) was 50% and the “Obs (% visual control)” value ([3]; Propanil 840 g/ha alone) was 0%. The “Obs (% visual control)” value ([4]; Propanil 840 g/ha alone) was 10%, the “Obs (% visual control)” value ([5]; Propanil 840 g/ha alone) was 10% and the “Obs (% visual control)” value ([6]; Propanil 840 g/ha alone) was 10%. For the same compound, the “Obs (% visual control)” value ([7]; Propanil 840 g/ha alone) was 10%, the “Obs (% visual control)” value ([8]; Propanil 840 g/ha alone) was 10% and the “Obs (% visual control)” value ([9]; Propanil 840 g/ha alone) was 50%. For the same compound, the “Obs (% visual control)” value ([10]; R-PAPRH, Propanil 840 g/ha alone) was 20% and the “Obs (% visual control)” value ([11]; Propanil 840 g/ha alone) was 0%.
